Test results from US11279733B2, “Peptide antibiotics” (priority 2017, dated 2022).
Converted amounts (≈) assume the structure as drawn. Positions of bridges follow the written chain, without caps; N, C: chain ends. Non-standard residues stand in square brackets, D forms with d. Residues, ends and D or L forms follow the SMILES beside them. *: point of attachment. Decanoyl(3R-OH) = CCCCCCC[C@@H](O)CC(=O)*; dIgl = N[C@@H](C(=O)O)C1Cc2ccccc2C1; Igl = N[C@H](C(=O)O)C1Cc2ccccc2C1; 4Pal = N[C@@H](Cc1ccncc1)C(=O)O; dChg = N[C@@H](C(=O)O)C1CCCCC1; dDab = NCC[C@@H](N)C(=O)O; Octanoyl = CCCCCCCC(=O)*; dDap = NC[C@@H](N)C(=O)O; Dab = NCC[C@H](N)C(=O)O

Legend:
[1] = test system: P. aeruginosa GN_105, PmxR; conditions: GN 105, PmxR
Method in brief: (§1)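 Mid-log cultures grown in Mueller Hinton broth at 37° C were tested by 2-fold broth microdilution at 5×10^5 CFU/mL final. Compounds were dissolved in water and tested over a final range of 32 to 0.015 μg/mL.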

[2] = test system: K. pneumoniae ATCC 13883; conditions: ATCC 13883
Method in brief: as §1

[3] = test system: K. pneumoniae ATCC BAA-2146, NDM-1 pos; conditions: ATCC BAA-2146
Method in brief: as §1

[4] = test system: K. pneumoniae GN_102 PmxR; conditions: GN 102 PmxR
Method in brief: as §1

[5] = test system: P. aeruginosa GN_043, PmxR; conditions: polymyxin-resistant
Method in brief: as §1

[6] = test system: A. baumannii GN_093 PmxR; conditions: GN 093 PmxR
Method in brief: as §1

[7] = test system: P. aeruginosa ATCC 27853; conditions: ATCC 27853
Method in brief: as §1

[8] = test system: A. baumannii ATCC 19606; conditions: ATCC 19606
Method in brief: as §1

[9] = test system: K. pneumoniae GN_106, PmxR; conditions: GN 106, PmxR
Method in brief: as §1

[10] = test system: K. pneumoniae ATCC 700603, MDR; conditions: ATCC 700603
Method in brief: as §1

[11] = test system: S. aureus ATCC 25923, MSSA; conditions: ATCC 25923
Method in brief: as §1

[12] = test system: E. coli ATCC 25922; conditions: ATCC 25922
Method in brief: as §1

[13] = in vitro; conditions: human
Method in brief: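 Cells were seeded at 4000 per well and allowed to attach for 24 h at 37 °C, 5% CO2, then exposed to compounds for 24 h. Resazurin (5 μM) was added for 2 h at 37 °C and fluorescence read at 560/590 nm. CC50 was derived by curve fitting of dose-dependent growth inhibition.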

SMILES	MIC P. aeruginosa GN_105, PmxR [1]	MIC K. pneumoniae ATCC 13883 [2]	MIC K. pneumoniae ATCC BAA-2146, NDM-1 pos [3]	MIC K. pneumoniae GN_102 PmxR [4]	MIC P. aeruginosa GN_043, PmxR [5]	MIC A. baumannii GN_093 PmxR [6]	MIC P. aeruginosa ATCC 27853 [7]	MIC A. baumannii ATCC 19606 [8]	MIC K. pneumoniae GN_106, PmxR [9]	MIC K. pneumoniae ATCC 700603, MDR [10]	MIC S. aureus ATCC 25923, MSSA [11]	MIC E. coli ATCC 25922 [12]	CC50 at 24 h [13]
CCCCCCC[C@@H](O)CC(=O)N[C@H](CN)C(=O)N[C@H]1CCNC(=O)[C@H](Cc2c[nH]c3ccccc23)NC(=O)[C@H](CCN)NC(=O)[C@H](CCN)NC(=O)[C@H](C2Cc3ccccc3C2)NC(=O)[C@@H](C2Cc3ccccc3C2)NC(=O)[C@H](CCN)NC1=O [compound 8897, 3(R)OH-nC9CO-D-Dap-cyc[L-Dab-L-Dab-D-indanylgly-L-indanylgly-L-Dab-L-Dab-L-Trp]] ({Decanoyl(3R-OH)}-[dDap][Dab][Dab][dIgl][Igl][Dab][Dab]W; lactam 2-C)	2 µg/mL (≈ 1.68 µM)	4 µg/mL (≈ 3.36 µM)	4 µg/mL (≈ 3.36 µM)	4 µg/mL (≈ 3.36 µM)	2 µg/mL (≈ 1.68 µM)	4 µg/mL (≈ 3.36 µM)	4 µg/mL (≈ 3.36 µM)	4 µg/mL (≈ 3.36 µM)	4 µg/mL (≈ 3.36 µM)	4 µg/mL (≈ 3.36 µM)	2 µg/mL (≈ 1.68 µM)	2 µg/mL (≈ 1.68 µM)	27 µM
CCCCCCCC(=O)N[C@H](CCN)C(=O)N[C@H]1CCNC(=O)[C@H](Cc2c[nH]c3ccccc23)NC(=O)[C@H](CCN)NC(=O)[C@H](CCN)NC(=O)[C@H](C2Cc3ccccc3C2)NC(=O)[C@@H](Cc2ccccc2)NC(=O)[C@H](CCN)NC1=O [compound 8898, nC7CO-D-Dab-cyc[L-Dab-L-Dab-D-Phe-L-indanylgly-L-Dab-L-Dab-L-Trp]] (Octanoyl-[dDab][Dab][Dab][dF][Igl][Dab][Dab]W; lactam 2-C)	4 µg/mL (≈ 3.53 µM)	8 µg/mL (≈ 7.06 µM)	4 µg/mL (≈ 3.53 µM)	4 µg/mL (≈ 3.53 µM)	4 µg/mL (≈ 3.53 µM)	16 µg/mL (≈ 14.1 µM)	4 µg/mL (≈ 3.53 µM)	16 µg/mL (≈ 14.1 µM)	8 µg/mL (≈ 7.06 µM)	4 µg/mL (≈ 3.53 µM)	4 µg/mL (≈ 3.53 µM)	4 µg/mL (≈ 3.53 µM)	90 µM
CCCCCCC[C@@H](O)CC(=O)N[C@H](CCN)C(=O)N[C@H]1CCNC(=O)[C@H](Cc2c[nH]c3ccccc23)NC(=O)[C@H](CCN)NC(=O)[C@H](CCN)NC(=O)[C@H](CC(C)C)NC(=O)[C@@H](C2CCCCC2)NC(=O)[C@H](CCN)NC1=O [compound 8899, 3(R)OH-nC9CO-D-Dab-cyc[L-Dab-L-Dab-D-Chg-L-Leu-L-Dab-L-Dab-L-Trp]] ({Decanoyl(3R-OH)}-[dDab][Dab][Dab][dChg]L[Dab][Dab]W; lactam 2-C)	2 µg/mL (≈ 1.8 µM)	8 µg/mL (≈ 7.21 µM)	4 µg/mL (≈ 3.61 µM)	8 µg/mL (≈ 7.21 µM)	4 µg/mL (≈ 3.61 µM)	16 µg/mL (≈ 14.4 µM)	4 µg/mL (≈ 3.61 µM)	16 µg/mL (≈ 14.4 µM)	16 µg/mL (≈ 14.4 µM)	4 µg/mL (≈ 3.61 µM)	8 µg/mL (≈ 7.21 µM)	4 µg/mL (≈ 3.61 µM)	64 µM
CCCCCCCC(=O)N[C@H](CCN)C(=O)N[C@H]1CCNC(=O)[C@H](Cc2c[nH]c3ccccc23)NC(=O)[C@H](CCN)NC(=O)[C@H](CCN)NC(=O)[C@H](CC(C)C)NC(=O)[C@@H](C2Cc3ccccc3C2)NC(=O)[C@H](CCN)NC1=O [compound 8900, nC7CO-D-Dab-cyc[L-Dab-L-Dab-D-indanylgly-L-Leu-L-Dab-L-Dab-L-Trp]] (Octanoyl-[dDab][Dab][Dab][dIgl]L[Dab][Dab]W; lactam 2-C)	8 µg/mL (≈ 7.28 µM)	16 µg/mL (≈ 14.6 µM)	8 µg/mL (≈ 7.28 µM)	16 µg/mL (≈ 14.6 µM)	4 µg/mL (≈ 3.64 µM)	>32 µg/mL	4 µg/mL (≈ 3.64 µM)	32 µg/mL (≈ 29.1 µM)	16 µg/mL (≈ 14.6 µM)	8 µg/mL (≈ 7.28 µM)	8 µg/mL (≈ 7.28 µM)	4 µg/mL (≈ 3.64 µM)	115 µM
CCCCCCCC(=O)N[C@H](CCN)C(=O)N[C@H]1CCNC(=O)[C@H](Cc2c[nH]c3ccccc23)NC(=O)[C@H](CCN)NC(=O)[C@H](CCN)NC(=O)[C@H](CC(C)C)NC(=O)[C@@H](Cc2ccccc2)NC(=O)[C@H](CCN)NC1=O [compound 8901, nC7CO-D-Dab-cyc[L-Dab-L-Dab-D-Phe-L-Leu-L-Dab-L-Dab-L-Trp]] (Octanoyl-[dDab][Dab][Dab][dF]L[Dab][Dab]W; lactam 2-C)	8 µg/mL (≈ 7.45 µM)	8 µg/mL (≈ 7.45 µM)	8 µg/mL (≈ 7.45 µM)	32 µg/mL (≈ 29.8 µM)	2 µg/mL (≈ 1.86 µM)	>32 µg/mL	2 µg/mL (≈ 1.86 µM)	32 µg/mL (≈ 29.8 µM)	32 µg/mL (≈ 29.8 µM)	8 µg/mL (≈ 7.45 µM)	16 µg/mL (≈ 14.9 µM)	8 µg/mL (≈ 7.45 µM)	> 300 µM
CCCCCCC[C@@H](O)CC(=O)N[C@H](CCN)C(=O)N[C@H]1CCNC(=O)[C@H](Cc2ccncc2)NC(=O)[C@H](CCN)NC(=O)[C@H](CCN)NC(=O)[C@H](CC(C)C)NC(=O)[C@@H](Cc2ccccc2)NC(=O)[C@H](CCN)NC1=O [compound 8906, 3(R)OH-nC9CO-D-Dab-cyc[L-Dab-L-Dab-D-Phe-L-Leu-L-Dab-L-Dab-L-Ala(4py)]] ({Decanoyl(3R-OH)}-[dDab][Dab][Dab][dF]L[Dab][Dab][4Pal]; lactam 2-C)	2 µg/mL (≈ 1.85 µM)	4 µg/mL (≈ 3.71 µM)	8 µg/mL (≈ 7.41 µM)	16 µg/mL (≈ 14.8 µM)	0.5 µg/mL (≈ 0.463 µM)	>32 µg/mL	1 µg/mL (≈ 0.926 µM)	>32 µg/mL	16 µg/mL (≈ 14.8 µM)	4 µg/mL (≈ 3.71 µM)	>32 µg/mL	4 µg/mL (≈ 3.71 µM)	> 300 µM
